From patent publication US10544120B2, “Biaryl kinase inhibitors” (BRISTOL-MYERS SQUIBB COMPANY, priority 2015, dated 2020) come the findings set out here.

This test has as its target GST-Xa-hAAK1 (Homo sapiens (Human), UniProt Q2M2I8). Kind of test: AAK1 Kinase Assay. The conditions noted are these: bacterially expressed GST-Xa-hAAK1 3.5 nM; ATP 22 μM; fluoresceinated peptide 1.5 μM; 3 hours at room temperature; Caliper LabChip 3000. Format: biochemical. Here is the method: The assays were performed in U-bottom 384-well plates. […] The reactions were initiated by the combination of bacterially expressed, GST-Xa-hAAK1 with substrates and test compounds. The reactions were incubated at room temperature for 3 hours and terminated by adding 60 μl of 35 mM EDTA buffer to each sample. The reactions were analyzed on the Caliper LabChip 3000 (Caliper, Hopkinton, Mass.) by electrophoretic separation of the fluorescent substrate and phosphorylated product. […] Compounds were dissolved at 10 mM in dimethylsulfoxide (DMSO) and evaluated at eleven concentrations. IC50 values were derived by non-linear regression analysis.

Chain of GST-Xa-hAAK1 (Q2M2I8 whole entry): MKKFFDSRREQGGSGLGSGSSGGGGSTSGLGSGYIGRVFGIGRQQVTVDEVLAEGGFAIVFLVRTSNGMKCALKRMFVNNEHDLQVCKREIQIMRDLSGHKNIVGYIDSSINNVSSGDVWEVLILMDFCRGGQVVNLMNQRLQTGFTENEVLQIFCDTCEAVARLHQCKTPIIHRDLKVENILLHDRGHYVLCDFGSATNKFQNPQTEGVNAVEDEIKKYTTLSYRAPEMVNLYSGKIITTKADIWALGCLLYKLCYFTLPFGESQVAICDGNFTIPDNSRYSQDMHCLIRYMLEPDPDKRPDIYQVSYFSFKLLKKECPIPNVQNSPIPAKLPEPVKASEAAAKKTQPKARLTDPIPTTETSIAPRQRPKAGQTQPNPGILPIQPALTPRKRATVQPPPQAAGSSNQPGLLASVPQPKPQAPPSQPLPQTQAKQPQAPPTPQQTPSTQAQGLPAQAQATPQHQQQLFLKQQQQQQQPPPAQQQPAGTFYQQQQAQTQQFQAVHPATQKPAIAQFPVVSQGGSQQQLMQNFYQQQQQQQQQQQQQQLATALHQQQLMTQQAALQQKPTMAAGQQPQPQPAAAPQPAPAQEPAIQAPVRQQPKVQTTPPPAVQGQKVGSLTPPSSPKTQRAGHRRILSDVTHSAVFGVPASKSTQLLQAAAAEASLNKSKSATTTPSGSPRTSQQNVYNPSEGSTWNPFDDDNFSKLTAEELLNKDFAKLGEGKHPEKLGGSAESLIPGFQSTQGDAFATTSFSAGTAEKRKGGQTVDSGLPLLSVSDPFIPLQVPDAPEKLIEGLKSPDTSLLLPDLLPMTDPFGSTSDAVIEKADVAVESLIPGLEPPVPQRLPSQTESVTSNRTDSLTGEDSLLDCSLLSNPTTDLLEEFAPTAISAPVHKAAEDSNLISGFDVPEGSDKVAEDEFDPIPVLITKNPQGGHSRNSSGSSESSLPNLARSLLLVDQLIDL

Regarding `Cc1cc(-c2cc(C)c(OC[C@@](C)(N)CC(C)C)cn2)ncn1` [Example 450, (S)-2,4-dimethyl-1-((4-methyl-6-(6-methylpyrimidin-4-yl)pyridin-3-yl)oxy)pentan-2-amine], the IC50 (in general, the midpoint of a concentration-inhibition curve) came out at 126 nM.
Consider `Cc1nccc(-c2cc(C#N)c(OC[C@@](C)(N)CC(C)C)cn2)n1` [Example 487, (S)-5-(2-amino-2,4-dimethylpentyloxy)-2-(2-methylpyrimidin-4-yl)isonicotinonitrile], for which the IC50 was determined as 1290 nM.
In the case of `Cc1nccc(-c2cnc(OC[C@](C)(N)CC(C)C)c(C)c2)n1` [Example 263, (R)-2,4-dimethyl-1-((3-methyl-5-(2-methylpyrimidin-4-yl)pyridin-2-yl)oxy)pentan-2-amine], the half-maximal inhibitory concentration (IC50) is 950 nM.
With `COc1cc(-c2cnc(OC[C@@](C)(N)CC(C)C)c(C#N)c2)ccn1` [Example 385, (S)-6-((2-amino-2,4-dimethylpentyl)oxy)-2′-methoxy-[3,4′-bipyridine]-5-carbonitrile] the figure was 50 nM; with `Cc1nccc(-c2cnc(OC[C@@](C)(N)CC(C)C)c(C)c2)n1` [Example 268, (S)-2,4-dimethyl-1-((3-methyl-5-(2-methylpyrimidin-4-yl)pyridin-2-yl)oxy)pentan-2-amine], 11 nM.
For `CC(C)C[C@](C)(N)COc1ccc(-c2cc(Cl)ncn2)cc1C#N` [Example 441, (S)-2-((2-amino-2,4-dimethylpentyl)oxy)-5-(6-chloropyrimidin-4-yl)benzonitrile], the IC50 amounted to 15 nM.
Under `COC(=O)Nc1cc(-c2cnc(OC[C@@](C)(N)CC(C)C)c(Cl)c2)ncn1` [Example 437, (S)-methyl (6-(6-((2-amino-2,4-dimethylpentyl)oxy)-5-chloropyridin-3-yl)pyrimidin-4-yl)carbamate] stands 2.2 nM; under `Cc1cc(-c2ccc(OC[C@@](C)(N)CC(C)C)c(C(F)(F)F)c2)ncn1` [Example 309, (S)-2,4-dimethyl-1-(4-(6-methylpyrimidin-4-yl)-2-(trifluoromethyl)phenoxy)pentan-2-amine], 8.5 nM.
With `CC(C)CCC(=O)Nc1cc(-c2ccc(OC[C@@](C)(N)CC(C)C)c(C(F)(F)F)c2)ccn1` [Example 397, (S)-N-(4-(4-((2-amino-2,4-dimethylpentyl)oxy)-3-(trifluoromethyl)phenyl)pyridin-2-yl)-4-methylpentanamide] the figure was 0.7 nM; with `CC(C)C[C@](C)(N)COc1ccc(-c2cc(N)ncn2)cc1C(F)(F)F` [Example 278, (S)-6-(4-((2-amino-2,4-dimethylpentyl)oxy)-3-(trifluoromethyl)phenyl) pyrimidin-4-amine], 1.9 nM.
Under `CC(C)C[C@](C)(N)COc1ccc(-c2ccnc(C(F)F)n2)nc1C(F)F` [Example 319, (S)-1-((2-(difluoromethyl)-6-(2-(difluoromethyl)pyrimidin-4-yl)pyridin-3-yl)oxy)-2,4-dimethylpentan-2-amine] stands 0.5 nM.
As to `Cc1cc(-c2ccnc(C(F)(F)F)c2)ncc1OC[C@@](C)(N)CC(C)C` [Example 349, (S)-2,4-dimethyl-1-((4-methyl-2′-(trifluoromethyl)-[2,4′-bipyridin]-5-yl)oxy)pentan-2-amine], the IC50 amounted to 70 nM.
With `CC(C)C[C@](C)(N)COc1ccc(-c2ccnc(C(F)F)c2)nc1CF` [Example 325, (S)-1-((2′-(difluoromethyl)-6-(fluoromethyl)-[2,4′-bipyridin]-5-yl)oxy)-2,4-dimethylpentan-2-amine] the figure was 1.8 nM; with `COC(=O)Nc1nccc(-c2ccc(OC[C@@](C)(N)CC(C)C)c(C)n2)n1` [Example 312, (S)-methyl (4-(5-((2-amino-2,4 dimethylpentyl)oxy)-6-methylpyridin-2-yl)pyrimidin-2-yl)carbamate], 4.9 nM.
On to `Cc1cc(-c2ccc(OC[C@@](C)(N)CC(C)C)c(C#N)c2)ncn1` [Example 436, (S)-2-((2-amino-2,4-dimethylpentyl)oxy)-5-(6-methylpyrimidin-4-yl)benzonitrile], for which the IC50 worked out at 6.2 nM.
Under `Cc1nccc(-c2ccc(OC[C@@](C)(N)CC(C)C)c(F)c2F)n1` [Example 511, (S)-1-(2,3-difluoro-4-(2-methylpyrimidin-4-yl)phenoxy)-2,4-dimethylpentan-2-amine] stands 5.1 nM; under `Cc1cc(-c2ccnc(C(F)(F)F)n2)ccc1OC[C@@](C)(N)CC(C)C` [Example 330, (S)-2,4-dimethyl-1-(2-methyl-4-(2-(trifluoromethyl)pyrimidin-4-yl)phenoxy)pentan-2-amine], 7.3 nM; under `COC(=O)Nc1nccc(-c2ccc(OC[C@@](C)(N)CC(C)C)c(C#N)c2)n1` [Example 305, (S)-methyl (4-(4-((2-amino-2,4-dimethylpentyl)oxy)-3-cyanophenyl)pyrimidin-2-yl)carbamate], 1 nM.
With `Cc1nccc(-c2ccc(OC[C@@](C)(N)CC(C)C)c(Cl)c2)n1` [Example 469, (S)-1-(2-chloro-4-(2-methylpyrimidin-4-yl)phenoxy)-2,4-dimethylpentan-2-amine] the figure was 1.5 nM; with `Cc1cc2c(-c3ccc(OC[C@@](C)(N)CC(C)C)c(C(F)(F)F)c3)ccnc2[nH]1` [Example 327, (S)-2,4-dimethyl-1-(4-(2-methyl-1H-pyrrolo[2,3-b]pyridin-4-yl)-2-(trifluoromethyl)phenoxy)pentan-2-amine], 0.8 nM; with `Cc1nc(-c2ccnc(N)n2)ccc1OC[C@@](C)(N)CC(C)C` [Example 313, (S)-4-(5-((2-amino-2,4-dimethylpentyl)oxy)-6-methylpyridin-2-yl)pyrimidin-2-amine], 2.4 nM.
Under `Cc1nc(-c2ccnc(Cl)n2)ccc1OC[C@@](C)(N)CC(C)C` [Example 451, (S)-1-((6-(2-chloropyrimidin-4-yl)-2-methylpyridin-3-yl)oxy)-2,4-dimethylpentan-2-amine] stands 2.7 nM; under `COC(=O)Nc1cc(-c2ccc(OC[C@@](C)(N)CC(C)C)c(CF)n2)ccn1` [Example 280, (S)-methyl (5-((2-amino-2,4-dimethylpentyl)oxy)-6-(fluoromethyl)-[2,4′-bipyridin]-2′-yl)carbamate], 1.1 nM.
As to `COC(=O)Nc1cc(-c2cc(F)c(OC[C@@](C)(N)CC(C)C)cc2F)ncn1` [Example 507, (S)-methyl (6-(4-((2-amino-2,4-dimethylpentyl)oxy)-2,5-difluorophenyl)pyrimidin-4-yl)carbamate], the IC50 stood at 5 nM.
With `COC(=O)Nc1nccc(-c2cnc(OC[C@@](C)(N)CC(C)C)c(Cl)c2)n1` [Example 375, (S)-methyl (4-(6-((2-amino-2,4-dimethylpentyl)oxy)-5-chloropyridin-3-yl)pyrimidin-2-yl)carbamate] the figure was 2.6 nM; with `CCc1cc(-c2ccc(OC[C@@](C)(N)CC(C)C)c(C(F)(F)F)c2)ncn1` [Example 444, (S)-1-(4-(6-ethylpyrimidin-4-yl)-2-(trifluoromethyl)phenoxy)-2,4-dimethylpentan-2-amine], 153 nM; with `COC(=O)Nc1cc(-c2ccc(OC[C@@](C)(N)CC(C)C)c(Cl)c2)cnn1` [Example 301, (S)-methyl (5-(4-((2-amino-2,4-dimethylpentyl)oxy)-3-chlorophenyl)pyridazin-3-yl)carbamate], 58 nM.
Regarding `Cc1cc2c(-c3ccc(OC[C@@](C)(N)CC(C)C)c(C#N)c3)ccnc2[nH]1` [Example 328, (S)-2-((2-amino-2,4-dimethylpentyl)oxy)-5-(2-methyl-1H-pyrrolo[2,3-b]pyridin-4-yl)benzonitrile], the IC50 was found to be 0.4 nM.
Regarding `COC(=O)Nc1cc(-c2cnc(OC[C@@](C)(N)CC(C)C)c(C)c2)ncn1` [Example 438, (S)-methyl (6-(6-((2-amino-2,4-dimethylpentyl)oxy)-5-methylpyridin-3-yl)pyrimidin-4-yl)carbamate], the IC50 came out at 6.5 nM.
`CCC(C)CC(=O)Nc1cc(-c2ccc(OC[C@@](C)(N)CC(C)C)c(C(F)(F)F)c2)ccn1` (stereo partly drawn) [Example 396, N-(4-(4-(((S)-2-amino-2,4-dimethylpentyl)oxy)-3-(trifluoromethyl)phenyl)pyridin-2-yl)-3-methylpentanamide]: the IC50 stood at 1.6 nM.
With `COc1cc(-c2ccc(OC[C@@](C)(N)CC(C)C)c(C(F)F)c2)ccn1` [Example 383, (S)-1-(2-(difluoromethyl)-4-(2-methoxypyridin-4-yl)phenoxy)-2,4-dimethylpentan-2-amine] the figure was 2 nM.
As to `COc1cc(-c2ccc(OC[C@@](C)(N)CC(C)C)c(C(F)(F)F)c2)ncn1` [Example 440, (S)-1-(4-(6-methoxypyrimidin-4-yl)-2-(trifluoromethyl)phenoxy)-2,4-dimethylpentan-2-amine], the IC50 is 308 nM.
Under `Cc1nccc(-c2ccc(OCC(N)(CC(C)C)C(F)(F)F)c(C)n2)n1` (single isomer, unassigned) [Example 359, 1,1,1-trifluoro-4-methyl-2-(((2-methyl-6-(2-methylpyrimidin-4-yl)pyridin-3-yl)oxy)methyl)pentan-2-amine] stands 865 nM.
